Test results published in ChEMBL document CHEMBL4627388, “Structural Specificity of Flavonoids in the Inhibition of Human Fructose 1,6-Bisphosphatase” (J Nat Prod, 2020).

Each compound was assayed against T1, Fructose-1,6-bisphosphatase 1 (Homo sapiens) (UniProt P09467) (assay: Inhibition of human liver FBP1 at 200 uM incubated for 5 mins by fluorescence method relative to control).
T1 sequence (whole entry): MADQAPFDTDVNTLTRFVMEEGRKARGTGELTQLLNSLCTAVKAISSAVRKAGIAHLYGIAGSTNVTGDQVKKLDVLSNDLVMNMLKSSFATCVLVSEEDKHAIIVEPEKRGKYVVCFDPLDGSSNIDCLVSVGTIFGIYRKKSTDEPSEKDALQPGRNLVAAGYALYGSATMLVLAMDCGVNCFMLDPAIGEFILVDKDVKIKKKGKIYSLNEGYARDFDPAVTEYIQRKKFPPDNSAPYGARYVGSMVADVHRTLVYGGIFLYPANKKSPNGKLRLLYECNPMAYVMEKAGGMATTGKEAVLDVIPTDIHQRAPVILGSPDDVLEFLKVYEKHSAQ

Q: How did the inhibition turn out when `O=c1cc(-c2cccc(O)c2)oc2cc(O)ccc12` was run?
A: < 20%

Q: With `O=c1c(O)c(-c2ccc(O)c(O)c2)oc2c(O)c(O)ccc12` as the compound, how does the inhibition read?
A: < 20%

Q: For `O=c1c(O)c(-c2cc(O)c(O)c(O)c2)oc2cc(O)cc(O)c12`, which inhibition is on record?
A: < 20%

Q: Which inhibition does the source give for `O=C1C[C@@H](c2ccc(O)cc2)Oc2cc(O)cc(O)c21` here?
A: < 20%

Q: For `COc1ccc2c(=O)c(O)c(-c3ccc(OCc4ccccc4)c(OCc4ccccc4)c3)oc2c1OC`, which inhibition is on record?
A: < 20%

Q: With `O=c1cc(-c2ccc(O)c(O)c2)oc2cc(O)cc(O)c12` as the compound, how does the inhibition read?
A: 22%

Q: With `COc1cc2oc(-c3ccccc3)cc(=O)c2c(O)c1O` as the compound, how does the inhibition read?
A: 46%

Q: How did the inhibition turn out when `COc1cc(-c2cc(=O)c3c(O)cc(O)cc3o2)ccc1O` was run?
A: < 20%

Q: Which inhibition does the source give for `O=c1c(O)c(-c2ccccc2)oc2cc(O)cc(O)c12` here?
A: < 20%

Q: For `O=c1cc(-c2ccc(O)cc2)oc2cc(O)ccc12`, which inhibition is on record?
A: < 20%

Q: With `O=c1c(O)c(-c2ccc(O)cc2)oc2cc(O)cc(O)c12` as the compound, how does the inhibition read?
A: < 20%

Q: Which inhibition does the source give for `O=c1cc(-c2ccc(O)c(O)c2)oc2cc(O)ccc12` here?
A: < 20%

Q: Which inhibition does the source give for `COc1cc2oc(-c3ccccc3)cc(=O)c2c(OC)c1OC` here?
A: < 20%

Q: Which inhibition does the source give for `O=c1c(O)c(-c2ccc(O)c(O)c2)oc2cc(O)cc(O)c12` here?
A: < 20%

Q: With `O=c1c(O)c(-c2ccc(O)cc2O)oc2cc(O)cc(O)c12` as the compound, how does the inhibition read?
A: < 20%

Q: With `O=C1c2c(O)cc(O)cc2O[C@H](c2ccc(O)c(O)c2)[C@H]1O` as the compound, how does the inhibition read?
A: < 20%

Q: With `O=c1c(O)c(-c2ccc(O)cc2)oc2cc(O)ccc12` as the compound, how does the inhibition read?
A: < 20%

Q: How did the inhibition turn out when `O=c1cc(-c2ccc(O)c(O)c2)oc2cc(O)c(Cl)c(O)c12` was run?
A: < 20%

Q: For `O=c1cc(-c2ccccc2)oc2cc(O)ccc12`, which inhibition is on record?
A: < 20%

Q: Which inhibition does the source give for `O=c1c(Cl)c(-c2ccc(O)c(O)c2)oc2cc(O)cc(O)c12` here?
A: < 20%

Q: How did the inhibition turn out when `O=c1cc(-c2ccc(O)c(O)c2)oc2cccc(O)c12` was run?
A: < 20%

Q: For `O=c1cc(-c2ccc(O)c(O)c2)oc2c(Cl)c(O)cc(O)c12`, which inhibition is on record?
A: < 20%

Q: How did the inhibition turn out when `O=c1cc(-c2ccccc2)oc2c(O)c(O)cc(O)c12` was run?
A: < 20%

Q: How did the inhibition turn out when `COc1cccc(-c2oc3cc(OC)ccc3c(=O)c2O)c1` was run?
A: < 20%

Q: `O=c1cc(-c2cccc(O)c2)oc2cccc(O)c12` was tested. Which inhibition did it give?
A: < 20%

Q: For `O=c1cc(-c2ccc(O)cc2)oc2cc(O)cc(O)c12`, which inhibition is on record?
A: < 20%

Q: With `COc1ccc(-c2cc(=O)c3c(O)cc(O)cc3o2)cc1OC` as the compound, how does the inhibition read?
A: < 20%

Q: For `O=c1c(Cl)c(-c2ccc(O)c(O)c2)oc2c(Cl)c(O)c(Cl)c(O)c12`, which inhibition is on record?
A: < 20%

Q: Which inhibition does the source give for `O=c1c(Cl)c(-c2ccc(O)c(O)c2)oc2c(Cl)c(O)cc(O)c12` here?
A: < 20%

Q: How did the inhibition turn out when `O=c1cc(-c2ccc(O)c(O)c2)oc2ccccc12` was run?
A: 25%

Q: `O=C1C[C@@H](c2ccc(O)c(O)c2)Oc2cc(O)cc(O)c21` was tested. Which inhibition did it give?
A: < 20%

Q: Which inhibition does the source give for `COc1ccc(-c2oc3c(O)c(O)ccc3c(=O)c2O)cc1OC` here?
A: 33%

Q: For `O=c1c(O)c(-c2ccc(O)c(O)c2)oc2cc(O)c(O)c(O)c12`, which inhibition is on record?
A: 37%

Q: Which inhibition does the source give for `O=c1cc(-c2ccc(O)cc2)oc2ccccc12` here?
A: < 20%

Q: `O=c1c(O)c(-c2cccc(O)c2)oc2cc(O)cc(O)c12` was tested. Which inhibition did it give?
A: < 20%

Q: Which inhibition does the source give for `O=c1c(O)c(-c2ccc(O)c(O)c2)oc2c(O[C@@H]3O[C@H](CO)[C@@H](O)[C@H](O)[C@H]3O)c(O)cc(O)c12` here?
A: < 20%

Q: With `COc1ccc(-c2oc3ccccc3c(=O)c2O)cc1OC` as the compound, how does the inhibition read?
A: < 20%

Q: How did the inhibition turn out when `COc1ccc(-c2cc(=O)c3c(O)cc(O)cc3o2)cc1` was run?
A: < 20%

Q: With `C[C@@H]1O[C@@H](OC[C@H]2O[C@@H](Oc3c(-c4ccc(O)c(O)c4)oc4cc(O)cc(O)c4c3=O)[C@H](O)[C@@H](O)[C@@H]2O)[C@H](O)[C@H](O)[C@H]1O` as the compound, how does the inhibition read?
A: < 20%

Q: How did the inhibition turn out when `O=c1cc(-c2ccc(O)cc2)oc2cccc(O)c12` was run?
A: < 20%

Q: `COc1ccc(-c2oc3c(OCc4ccccc4)c(OCc4ccccc4)ccc3c(=O)c2O)cc1OC` was tested. Which inhibition did it give?
A: < 20%

Q: Which inhibition does the source give for `O=c1c(O)c(-c2cccc(O)c2)oc2cc(O)ccc12` here?
A: < 20%

Q: Which inhibition does the source give for `COc1ccc(-c2oc3cc(OC)ccc3c(=O)c2O)cc1` here?
A: < 20%

Q: `O=C(O)[C@H]1O[C@@H](Oc2cc3oc(-c4ccccc4)cc(=O)c3c(O)c2O)[C@H](O)[C@@H](O)[C@@H]1O` was tested. Which inhibition did it give?
A: < 20%

Q: `O=c1cc(-c2ccccc2)oc2cc(O)cc(O)c12` was tested. Which inhibition did it give?
A: < 20%

Q: How did the inhibition turn out when `COc1ccc2c(=O)c(O)c(-c3ccc(O)c(O)c3)oc2c1OC` was run?
A: < 20%

Q: How did the inhibition turn out when `O=c1cc(-c2cccc(O)c2)oc2ccccc12` was run?
A: < 20%

Q: `O=c1c(O)c(-c2ccc(O)c(O)c2)oc2ccccc12` was tested. Which inhibition did it give?
A: 20%

Q: With `O=c1cc(-c2ccccc2)oc2ccccc12` as the compound, how does the inhibition read?
A: < 20%

Q: For `O=c1cc(-c2ccccc2)oc2cccc(O)c12`, which inhibition is on record?
A: < 20%

Q: How did the inhibition turn out when `Oc1ccc(-c2[o+]c3c(O)c(O)cc(O)c3cc2O)cc1O` was run?
A: 46%

The compounds below were run against T2, Fructose-1,6-bisphosphatase 1 (Homo sapiens, UniProt P09467) (assay: Inhibition of human liver FBP1 incubated for 5 mins by fluorescence method).
T2 sequence (P09467 whole entry): T1 sequence (whole entry)

Q: `O=c1cc(-c2ccc(O)cc2)oc2cc(O)c(O)c(O)c12` [SCUTELLAREIN] was tested. Which IC50 did it give?
A: 38.2 µM

Q: Which IC50 does the source give for `Nc1ncnc2c1ncn2[C@@H]1O[C@H](COP(=O)(O)O)[C@@H](O)[C@H]1O` [ADENOSINE PHOSPHATE] here?
A: 2.6 µM

Q: How did the IC50 turn out when `O=c1cc(-c2ccccc2)oc2cc(O)c(O)c(O)c12` [BAICALEIN] was run?
A: 29 µM

Q: `O=c1c(O)c(-c2ccc(O)cc2)oc2c(O)c(O)cc(O)c12` [HERBACETIN] was tested. Which IC50 did it give?
A: 8.7 µM

Q: How did the IC50 turn out when `O=c1c(O)c(-c2ccc(O)c(O)c2)oc2c(O)c(O)cc(O)c12` [GOSSYPETIN] was run?
A: 24 µM
